In article PMC11790914, “Chemogenomics for steroid hormone receptors (NR3)” (Communications Chemistry, 2025):
Where “and” joins values, the source holds several entries; their conditions need not be identical. Equal values may be shown once.

Tests used:
HEK293T cells [1] = assay: Cytotoxicity: necrosis induction (red fluorescent dye for permeable plasma membranes); assay type: cell-based; conditions: 1 µM, 24 h, necrotic cell count normalized to 0.1% DMSO, single replicates;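 also: compounds applied in DMEM high glucose with 0.1% FCS and 0.1% DMSO, necrotic HEK293T cells counted by red staining of cells whose plasma membranes had become permeable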
Description: Cells were incubated with the test compounds at the indicated concentrations solubilized with 0.1% DMSO for 24 h. […] Necrotic cells were detected with a red fluorescent dye that labels cells with permeable plasma membranes after 24 h treatment and the necrotic cell count was normalized to 0.1% DMSO treated cells (n = 4). e NR family selectivity profiling of NR3 CG compound candidates in uniform Gal4-hybrid reporter gene assays for selected NR representing the NR1, NR2, NR4 and NR5 families.
HEK293T cells (German Collection of Microorganisms and Cell Culture GmbH, DSMZ; #ACC305) were cultured in DMEM high glucose, supplemented with 10% fetal calf serum (FCS), sodium pyruvate (1 mM), penicillin (100 µ/mL) and streptomycin (100 µg/mL) at 37 °C and 5% (v/v) CO2, and seeded in pre-coated (10 µg/mL collagen G solution (Merck KgaA; #L7213) for 30 min at 37 °C) 96-well plates (2 × 10^5 cells per well). After 24 h, the cells were treated with the respective NR3 CG compound candidate at the recommended concentration, bexarotene (100 µM) or doxorubicin (30 µM) as positive controls in DMEM high glucose supplemented with 0.1% FCS, penicillin (100 µ/mL), streptomycin (100 µg/mL) and 0.1% DMSO, or 0.1% DMSO alone as an untreated control. Each sample was prepared in at least four biologically independent replicates. […] Before drug administration, after the first medium exchange, 24 h after drug administration, and after fluorescence imaging cell confluence was assessed using the Tecan Spark Cyto, to account for changes in cell confluence due to drug administration and cell handling. Compound effects on cell confluence, apoptosis, metabolic activity and necrosis were normalized to the vehicle control of each biological replicate individually.

Gal4-VP16 = assay type: cell-based; conditions: 1 µM; vs. DMSO ctrl; single replicates n=1-3
ABL1 = target: T1, ABL1 (Homo sapiens, UniProt P00519); assay: Liability panel screening by DSF: ABL1; assay type: binding; conditions: DSF, 20 µM, n=2; read-out: Mean ΔTM ABL1
T1 construct: made in house
T1 sequence (P00519 whole entry, species assumed): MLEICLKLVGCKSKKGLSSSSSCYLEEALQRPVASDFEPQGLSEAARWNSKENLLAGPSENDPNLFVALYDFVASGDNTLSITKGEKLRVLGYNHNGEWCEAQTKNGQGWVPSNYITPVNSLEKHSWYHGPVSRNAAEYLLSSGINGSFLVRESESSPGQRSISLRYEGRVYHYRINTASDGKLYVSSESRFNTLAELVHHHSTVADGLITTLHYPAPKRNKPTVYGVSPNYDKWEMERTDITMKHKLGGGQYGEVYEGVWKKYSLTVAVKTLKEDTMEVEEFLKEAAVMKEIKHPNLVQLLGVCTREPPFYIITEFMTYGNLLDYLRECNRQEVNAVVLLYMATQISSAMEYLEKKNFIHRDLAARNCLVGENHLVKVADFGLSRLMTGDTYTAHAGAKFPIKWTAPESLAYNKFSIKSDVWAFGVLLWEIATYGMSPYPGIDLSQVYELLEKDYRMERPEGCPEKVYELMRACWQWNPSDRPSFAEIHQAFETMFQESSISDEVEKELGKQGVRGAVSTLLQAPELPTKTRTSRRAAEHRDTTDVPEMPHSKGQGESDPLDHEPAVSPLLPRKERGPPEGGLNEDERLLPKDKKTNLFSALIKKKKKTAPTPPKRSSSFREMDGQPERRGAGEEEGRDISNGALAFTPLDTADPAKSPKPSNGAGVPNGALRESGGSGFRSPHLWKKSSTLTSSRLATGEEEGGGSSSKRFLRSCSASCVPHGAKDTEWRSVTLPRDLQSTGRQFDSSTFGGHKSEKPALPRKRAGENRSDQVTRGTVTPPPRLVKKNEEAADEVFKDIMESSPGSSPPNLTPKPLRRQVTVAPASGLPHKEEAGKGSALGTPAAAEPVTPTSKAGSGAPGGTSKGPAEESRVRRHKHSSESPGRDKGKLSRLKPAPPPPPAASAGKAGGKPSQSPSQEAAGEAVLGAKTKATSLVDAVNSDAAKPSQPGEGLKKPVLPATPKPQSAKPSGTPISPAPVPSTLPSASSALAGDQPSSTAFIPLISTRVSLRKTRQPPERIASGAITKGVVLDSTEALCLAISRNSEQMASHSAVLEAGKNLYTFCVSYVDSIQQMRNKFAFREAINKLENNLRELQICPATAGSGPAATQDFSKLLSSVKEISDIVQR
Outline: (§1)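 ∆Tm in K was taken from Boltzmann-fitted unfolding inflection points, run in duplicate with a temperature ramp of 3 °C per minute up to 85 °C. Each recombinant protein (2 µM) was in HEPES 10 mM pH 7.5 and NaCl 500 mM, with SYPRO Orange dye at 1:1000.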

AURKA = target: T2, AURKA (Homo sapiens, UniProt O14965); assay: Liability panel screening by DSF: AURKA; assay type: binding; conditions: DSF, 20 µM, n=2; read-out: Mean ΔTM AURKA
T2 construct: made in house
T2 sequence (O14965 1-403): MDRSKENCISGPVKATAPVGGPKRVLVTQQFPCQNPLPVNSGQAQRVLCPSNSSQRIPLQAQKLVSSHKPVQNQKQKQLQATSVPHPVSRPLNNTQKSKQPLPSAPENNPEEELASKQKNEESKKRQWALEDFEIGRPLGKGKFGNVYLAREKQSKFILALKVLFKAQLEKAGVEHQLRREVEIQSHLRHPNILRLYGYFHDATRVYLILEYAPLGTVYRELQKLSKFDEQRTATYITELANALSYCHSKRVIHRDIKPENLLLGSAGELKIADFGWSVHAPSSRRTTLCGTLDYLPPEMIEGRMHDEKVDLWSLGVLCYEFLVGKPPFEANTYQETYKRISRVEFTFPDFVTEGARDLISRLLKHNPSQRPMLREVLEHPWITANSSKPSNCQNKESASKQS
Outline: as §1

CDK2 = target: T3, CDK2 (Homo sapiens, UniProt P24941); assay: Liability panel screening by DSF: CDK2; assay type: binding; conditions: DSF, 20 µM, n=2; read-out: Mean ΔTM CDK2
T3 construct: made in house
Outline: as §1

FGFR3 = target: T4, FGFR3 (Homo sapiens, UniProt P22607); assay: Liability panel screening by DSF: FGFR3; assay type: binding; conditions: DSF, 20 µM, n=2; read-out: Mean ΔTM FGFR3
T4 construct: made in house
T4 sequence (P22607 23-806, species assumed): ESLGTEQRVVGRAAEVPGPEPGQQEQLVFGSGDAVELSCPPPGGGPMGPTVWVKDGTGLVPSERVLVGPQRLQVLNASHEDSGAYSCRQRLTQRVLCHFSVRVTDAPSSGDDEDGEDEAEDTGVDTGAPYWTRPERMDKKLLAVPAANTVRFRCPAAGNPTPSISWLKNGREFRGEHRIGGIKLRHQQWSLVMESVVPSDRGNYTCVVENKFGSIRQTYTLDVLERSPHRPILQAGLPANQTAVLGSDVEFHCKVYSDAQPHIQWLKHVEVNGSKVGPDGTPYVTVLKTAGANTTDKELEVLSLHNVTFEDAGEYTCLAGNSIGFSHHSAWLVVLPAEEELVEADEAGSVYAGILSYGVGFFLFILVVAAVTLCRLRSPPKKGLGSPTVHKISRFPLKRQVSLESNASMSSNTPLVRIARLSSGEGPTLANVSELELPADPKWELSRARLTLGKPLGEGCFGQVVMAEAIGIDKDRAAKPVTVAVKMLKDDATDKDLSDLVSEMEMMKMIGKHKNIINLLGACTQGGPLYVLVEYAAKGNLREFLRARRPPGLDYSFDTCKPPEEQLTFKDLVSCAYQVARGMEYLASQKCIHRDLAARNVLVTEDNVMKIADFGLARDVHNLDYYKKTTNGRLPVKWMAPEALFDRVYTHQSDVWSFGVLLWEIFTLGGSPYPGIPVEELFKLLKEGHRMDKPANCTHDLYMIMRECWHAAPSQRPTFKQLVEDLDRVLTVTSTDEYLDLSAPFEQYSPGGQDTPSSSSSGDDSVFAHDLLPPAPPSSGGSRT
Outline: as §1

GSK3B = target: T5, GSK3B (Homo sapiens, UniProt P49841); assay: Liability panel screening by DSF: GSK3B; assay type: binding; conditions: DSF, 20 µM, n=2; read-out: Mean ΔTM GSK3B
T5 construct: made in house
T5 sequence (P49841 whole entry, species assumed): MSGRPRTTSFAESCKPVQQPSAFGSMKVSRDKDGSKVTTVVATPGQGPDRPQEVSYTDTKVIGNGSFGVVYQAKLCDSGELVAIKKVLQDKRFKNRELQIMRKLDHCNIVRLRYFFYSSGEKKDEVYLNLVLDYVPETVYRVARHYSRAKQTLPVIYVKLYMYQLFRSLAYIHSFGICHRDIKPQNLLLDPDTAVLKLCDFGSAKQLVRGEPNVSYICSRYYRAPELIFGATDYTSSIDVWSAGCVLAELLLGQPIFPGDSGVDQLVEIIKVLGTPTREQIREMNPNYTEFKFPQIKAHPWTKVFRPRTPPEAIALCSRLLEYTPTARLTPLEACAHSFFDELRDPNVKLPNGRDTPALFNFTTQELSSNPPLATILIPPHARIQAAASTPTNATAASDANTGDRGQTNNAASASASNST

BRD4 = target: T6, BRD4 (Homo sapiens, UniProt O60885); assay: Liability panel screening by DSF: BRD4; assay type: binding; conditions: DSF, 20 µM, n=2; read-out: Mean ΔTM BRD4
T6 construct: This panel comprised ten highly ligandable kinases and bromodomains; made in house
Outline: as §1

BRPF1 = target: T7, BRPF1 (Homo sapiens, UniProt P55201); assay: Liability panel screening by DSF: BRPF1; assay type: binding; conditions: DSF, 20 µM, n=2; read-out: Mean ΔTM BRPF1
T7 construct: This panel comprised ten highly ligandable kinases and bromodomains; made in house
T7 sequence (P55201 628-732 limits assumed): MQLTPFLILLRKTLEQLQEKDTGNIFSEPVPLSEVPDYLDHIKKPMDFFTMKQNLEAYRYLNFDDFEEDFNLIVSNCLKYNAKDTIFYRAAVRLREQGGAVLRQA
Outline: as §1

CSNK1D = target: T8, CSNK1D (Homo sapiens, UniProt P48730); assay: Liability panel screening by DSF: CSNK1D; assay type: binding; conditions: DSF, 20 µM, n=2; read-out: Mean ΔTM CSNK1D
T8 construct: made in house
T8 sequence (P48730 whole entry, species assumed): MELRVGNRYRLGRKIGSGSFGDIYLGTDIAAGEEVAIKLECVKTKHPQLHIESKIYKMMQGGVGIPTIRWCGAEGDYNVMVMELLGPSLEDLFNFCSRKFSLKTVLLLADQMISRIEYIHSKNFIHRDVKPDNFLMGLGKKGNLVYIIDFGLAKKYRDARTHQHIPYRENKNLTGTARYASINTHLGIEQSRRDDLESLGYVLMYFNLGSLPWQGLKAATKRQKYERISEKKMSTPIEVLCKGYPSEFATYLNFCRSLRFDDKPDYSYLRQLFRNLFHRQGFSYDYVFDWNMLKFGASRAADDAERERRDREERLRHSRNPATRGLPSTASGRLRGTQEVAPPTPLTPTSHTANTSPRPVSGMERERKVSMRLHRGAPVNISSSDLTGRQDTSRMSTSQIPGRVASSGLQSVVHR
Outline: as §1

MAPK1 = target: T9, MAPK1 (Homo sapiens, UniProt P28482); assay: Liability panel screening by DSF: MAPK1; assay type: binding; conditions: DSF, 20 µM, n=2; read-out: Mean ΔTM MAPK1
T9 construct: made in house
T9 sequence (P28482 whole entry, species assumed): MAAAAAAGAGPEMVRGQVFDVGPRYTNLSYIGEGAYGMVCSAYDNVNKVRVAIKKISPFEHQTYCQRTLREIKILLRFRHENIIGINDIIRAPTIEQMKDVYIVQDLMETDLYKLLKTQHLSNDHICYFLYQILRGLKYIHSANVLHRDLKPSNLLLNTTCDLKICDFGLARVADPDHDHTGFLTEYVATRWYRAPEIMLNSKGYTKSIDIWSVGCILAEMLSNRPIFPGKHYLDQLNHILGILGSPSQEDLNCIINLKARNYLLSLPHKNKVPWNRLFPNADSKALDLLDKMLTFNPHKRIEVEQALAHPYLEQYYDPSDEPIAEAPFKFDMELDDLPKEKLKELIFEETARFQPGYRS
Outline: as §1

TRIM24 = target: T10, TRIM24 (Homo sapiens, UniProt O15164); assay: Liability panel screening by DSF: TRIM24; assay type: binding; conditions: DSF, 20 µM, n=2; read-out: Mean ΔTM TRIM24
T10 construct: This panel comprised ten highly ligandable kinases and bromodomains; made in house
T10 sequence (O15164 899-1004 limits assumed): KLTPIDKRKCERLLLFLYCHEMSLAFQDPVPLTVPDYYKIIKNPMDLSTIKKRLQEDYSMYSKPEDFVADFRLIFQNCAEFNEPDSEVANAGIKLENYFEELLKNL
Outline: as §1

[2] = tested on: NF-κB activity in HEK293 NF-κB reporter cells; assay: NF-kB activity assay (GFP reporter, ionomycin/PMA); assay type: cell-based; conditions: n=3
Outline: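 Reporter readout: GFP-expressing cells normalized to confluence, imaged every 90 min across 24 h after ionomycin (100 ng/mL)/PMA (10 ng/mL) stimulation of HEK293 cells pre-treated 4 h with compound (0.1% DMSO); triplicate independent experiments.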

[3] = tested on: ATF6 activity in Hela ATF6 reporter cells; assay: Endoplasmic reticulum stress assay (ATF6 Renilla luciferase reporter, tunicamycin); assay type: cell-based; conditions: Homo sapiens, HeLa, 1 µM, single replicates n=1 to n=5; read-out: ER stress [rel. ATF6 activity]
Outline: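 ER stress was induced by 100 ng/mL tunicamycin added 4 h after compound (0.1% DMSO) to HeLa ATF6 reporter cells. After 18 h more, Renilla luciferase signal was read and expressed relative to DMSO control, n=5 biological replicates.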

HEK293T cells [4] = assay: Cytotoxicity: metabolic activity (WST-8 / CCK-8 assay); conditions: 1 µM, single replicates
HEK293T cells [5] = assay: Cytotoxicity: growth-rate (change in confluence over 24 h); conditions: 1 µM, normalized to 0.1% DMSO control, single replicates (n=1...)
HEK293T cells [6] = assay: Cytotoxicity: apoptosis induction (caspase-3/7 DEVD fluorogenic DNA dye); conditions: 1 µM, single replicates
NR3C1 (GR) = conditions: (lit.); ref Supplementary Table 1; read-out: Potency [nM] EC50, NR3C1 (GR); cited from earlier work
[7] = other targets with annotated bioactivities at ≤10 µM in previously published dataset; cited from earlier work
[8] = HEK293T, 24 h, WST-8, normalized to 0.1% DMSO
[9] = HEK293T, 24 h, apoptotic cell count normalized to 0.1% DMSO

| Compound | Necrosis induction [NI] (HEK293T cells [1]) | VP16 control [fold reporter gene activity] (Gal4-VP16) | ΔTm at 20 µM (ABL1) [°C] | ΔTm at 20 µM (AURKA) [°C] | ΔTm at 20 µM (CDK2) [°C] | ΔTm at 20 µM (FGFR3) [°C] | ΔTm at 20 µM (GSK3B) [°C] | ΔTm at 20 µM (BRD4) [°C] | ΔTm at 20 µM (BRPF1) [°C] | ΔTm at 20 µM (CSNK1D) [°C] | ΔTm at 20 µM (MAPK1) [°C] | ΔTm at 20 µM (TRIM24) [°C] | Mean NFκB response ([2]; 1 µM, 1,5 h) | Mean NFκB response ([2]; 1 µM, 4,5 h) | Mean NFκB response ([2]; 1 µM, 7,5 h) | Mean NFκB response ([2]; 1 µM, 10,5 h) | Mean NFκB response ([2]; 1 µM, 13,5 h) | Mean NFκB response ([2]; 1 µM, 16,6 h) | Mean NFκB response ([2]; 1 µM, 19,5 h) | Growth rate [GR] (HEK293T cells [5]) | other results |
| --- | --- | --- | --- | --- | --- | --- | --- | --- | --- | --- | --- | --- | --- | --- | --- | --- | --- | --- | --- | --- | --- |
| CC(=O)O[C@]1(C(C)=O)CC[C@H]2[C@@H]3CCC4=CC(=O)CCC4=C3[C@@H](c3ccc(N(C)C)cc3)C[C@@]21C [Ulipristal acetate] | 1.05 and 1.11 and 0.95 and 0.92 | 1.05 fold reporter gene activity and 1.09 fold reporter gene activity and 1.04 fold reporter gene activity | 0.29 | -1.14 | -0.32 | -0.057 | -0.83 | -2.72 | -2.65 | 0.22 | -0.0546 | -1.79 | 2644.31 GFP+-cells/confluence ∙ 1000 | 3036.67 GFP+-cells/confluence ∙ 1000 | 6043.33 GFP+-cells/confluence ∙ 1000 | 16570.00 GFP+-cells/confluence ∙ 1000 | 25096.67 GFP+-cells/confluence ∙ 1000 | 31636.67 GFP+-cells/confluence ∙ 1000 | 36313.33 GFP+-cells/confluence ∙ 1000 | 0.78 and 1.52 and 1.08 and 1.00 (2×) and 1.04 and 0.73 and 0.60 and 1.80 and 3.99 | Mean NFκB response ([2]; 1 µM, 22,5 h): 39910.00 GFP+-cells/confluence ∙ 1000; Mean NFκB response ([2]; 1 µM, 3 h): 2710.00 GFP+-cells/confluence ∙ 1000; Mean NFκB response ([2]; 1 µM, 6 h): 3846.67 GFP+-cells/confluence ∙ 1000; Mean NFκB response ([2]; 1 µM, 9 h): 10723.33 GFP+-cells/confluence ∙ 1000; Mean NFκB response ([2]; 1 µM, 12 h): 21213.33 GFP+-cells/confluence ∙ 1000; Mean NFκB response ([2]; 1 µM, 15 h): 28280.00 GFP+-cells/confluence ∙ 1000; Mean NFκB response ([2]; 1 µM, 18 h): 34176.67 GFP+-cells/confluence ∙ 1000; Mean NFκB response ([2]; 1 µM, 21 h): 38276.67 GFP+-cells/confluence ∙ 1000; Mean NFκB response ([2]; 1 µM, 24 h): 41050.00 GFP+-cells/confluence ∙ 1000; activity at 1 µM [3]: 102%; Metabolic activity [MA] (HEK293T cells [4]; [8]): 1.04 and 0.97 and 0.99 (2×) and 1.03 (2×) and 0.96 and 1.08; Apoptosis induction [AI] (HEK293T cells [6]; [9]): 0.98 (2×) and 0.83 and 1.37 and 1.27 and 0.92 |
| CCC(=O)O[C@]1(C(=O)SCF)[C@H](C)C[C@H]2[C@@H]3C[C@H](F)C4=CC(=O)C=C[C@]4(C)[C@@]3(F)[C@@H](O)C[C@@]21C [Fluticasone propionate] |  |  | 0.19 | 0.09 | 0.15 | 0.32 | -0.55 | -0.24 | -0.69 | -0.0152 | -0.034 | -0.08 |  |  |  |  |  |  |  | 0.78 and 1.00 and 1.07 and 0.88 (2×) and 0.82 | EC50 (NR3C1 (GR)): 1 nM; Reason for exclusion: number of annotated off-targets [7]: > 5 off-targets; Metabolic activity [MA] (HEK293T cells [4]; DMSO 0.1% = 1.00): 0.94 and 0.83 and 1.03 and 1.06 and 1.10 and 1.04; Apoptosis induction [AI] (HEK293T cells [6]; DMSO 0.1% = 1.00): 0.81 and 1.24 |
| COC(=O)[C@@H]1CC2=CC(=O)CC[C@]2(C)[C@@]23O[C@@H]2C[C@@]2(C)[C@@H](CC[C@@]24CCC(=O)O4)[C@H]13 [Eplerenone] | 1.05 and 1.24 and 1.00 and 0.99 | 1.24 fold reporter gene activity and 0.82 fold reporter gene activity and 1.00 fold reporter gene activity | 0.55 | -0.81 | -0.21 | 1.06 | -0.8 | -1.74 | -1.07 | 0.47 | 0.21 | -0.62 | 2599.33 GFP+-cells/confluence ∙ 1000 | 2970.00 GFP+-cells/confluence ∙ 1000 | 5786.00 GFP+-cells/confluence ∙ 1000 | 15820.00 GFP+-cells/confluence ∙ 1000 | 23870.00 GFP+-cells/confluence ∙ 1000 | 30236.67 GFP+-cells/confluence ∙ 1000 | 34356.67 GFP+-cells/confluence ∙ 1000 | 0.85 and 4.28 and 0.92 and 1.11 and 0.73 and 0.84 and 0.96 and 4.53 and 0.57 and 31.96 | Mean NFκB response ([2]; 1 µM, 22,5 h): 38213.33 GFP+-cells/confluence ∙ 1000; Mean NFκB response ([2]; 1 µM, 3 h): 2606.00 GFP+-cells/confluence ∙ 1000; Mean NFκB response ([2]; 1 µM, 6 h): 3625.00 GFP+-cells/confluence ∙ 1000; Mean NFκB response ([2]; 1 µM, 9 h): 10753.00 GFP+-cells/confluence ∙ 1000; Mean NFκB response ([2]; 1 µM, 12 h): 20210.00 GFP+-cells/confluence ∙ 1000; Mean NFκB response ([2]; 1 µM, 15 h): 27316.67 GFP+-cells/confluence ∙ 1000; Mean NFκB response ([2]; 1 µM, 18 h): 32426.67 GFP+-cells/confluence ∙ 1000; Mean NFκB response ([2]; 1 µM, 21 h): 36556.67 GFP+-cells/confluence ∙ 1000; Mean NFκB response ([2]; 1 µM, 24 h): 39176.67 GFP+-cells/confluence ∙ 1000; activity at 1 µM [3]: 96%; Metabolic activity [MA] (HEK293T cells [4]; [8]): 1.06 and 1.03 and 0.91 and 0.99 (3×) and 0.98 and 1.09; Apoptosis induction [AI] (HEK293T cells [6]; [9]): 0.96 and 0.85 and 1.29 and 1.36 and 1.16 and 1.24 |
